Patent US20110060000A1, “ACRIDINE ANALOGS IN THE TREATMENT OF GLIOMAS” (priority 2009, published 2011)

Tests used:
C6 = assay: TUNEL labeling in C6; type: cell-based, rat; conditions: C6, 24 hours
Method: C6 were plated on glass coverslips. Cells were fixed and stained accordingly to manufacturer instructions. Propidium staining of the nuclei was replaced by Hoechst included in the mounting media. Several images were acquired with a high resolution camera on a microscope equipped with a 10× long working distance dry lens and analyzed with powerful commercial software. Results were expressed in the graph as green labeled pixel counts. The images from the top to the bottom are respectively from N.T., DMSO, Thap 20 nM, Thap 200 nM, STS100 nM. The blue images reflect nuclear staining while the images on the right represent BRDU staining.
Thereafter, cells were harvested and protein extracted. Procaspase 12 band at 65 kDa was identified. In some of the treatments, the active product at 45 kDa was also detected. […] Conversely, in C6, higher GRP78 levels and the cell environment reflect significant caspase activation. […] Caspase activation in ERSR conditions was also confirmed with a TUNEL based apoptosis detection system in C6. […] High resolution images of the experiments were acquired and image morphometric analysis was performed to determine quantitative parameters of the staining as previously described (Pascale et al., 2004, “Translocation of protein kinase C-betaII in astrocytes requires organized actin cytoskeleton and is not accompanied by synchronous RACK1 relocation.” Glia 46(2): 169-82). […]

tumor cells = conditions: in vitro and in vivo; cited from earlier work
p53 = conditions: cited from earlier work
[1] = test system: U87-MG skin xenograft tumor explants; assay: U87-MG skin xenograft tumor explants, ERSR markers; type: in vivo, mice; conditions: samples after 7 and 21 days
Excerpt: U7 represents vehicle treated sample after 7 days. U21 represents vehicle treated sample after 21 days. Q7 represents quinacridine-treated sample after 7 days. Q21 represents quinacridine-treated sample after 21 days. 9AA-7 represents 9-aminoacridine-treated sample after 7 days. 9AA-21 represents 9-aminoacridine-treated sample after 21 days.

C6 cells = conditions: tested at less than 1 μM; cited from earlier work
glioma cells = assay: Gliotoxicity, cell line not stated; type: cell-based
Excerpt: Spiperone is a selective D2 dopamine receptor antagonist. This drug is used in the treatment of schizophrenia and other hallucinatory states. […] In an effort to develop Structure-Activity Relationships around the chosen compounds, a search of commercially available compounds that are either close structural analogs of these lead compounds (for example, acridine and quinoline analogs of quinacrine) or are related to these in terms of their pharmacological activity (dopamine receptor antagonists related to spiperone) was performed.

[2] = test system: subcutaneous U87-MG gliomas; assay: Mice bearing subcutaneous U87-MG gliomas; type: in vivo
Excerpt: The estimated survival prolongment is 14 days in mice life which compares at 851 days in human life based on a life expectancy of 18 months in mice and 90 years in human. Also, since one animal was tumor-free at the end of the treatment that translates in an expected 16% cure rate.
FIG. 29a graphs % tumor weight/control as a function of days after implantation. […] Such a profile indicates effectiveness in vivo for both treatment and for prevention of relapse. FIG. 29b graphs % animal survival as a function of days after implantation. […] Such a profile indicates effectiveness in vivo for both treatment and for prevention of relapse.
Mice bearing subcutaneous gliomas were received daily oral administration of 200 mg/kg of quinacrine. […] In FIG. 29 is shown the effect of 100 mg/kg of quinacrine and 10 mg/kg 9-aminoacridine in Mice bearing subcutaneous U87-MG gliomas.

[3] = intrapleural, 100 mg/day in 50 ml saline for 4 days; cited from earlier work
platelets = conditions: cited from earlier work
DNA = conditions: cited from earlier work
[4] = 200 mg/kg daily oral for 14 days
[5] = full dose over about 45 days, Q oral, 9-AA I.P.
[6] = half dose (maintenance dose) up to about 60 days

SMILES: C/C=C(/C)C(=O)O[C@H]1C(C)=C2[C@H]([C@@H]1OC(=O)CCCCCCC)[C@@](C)(OC(C)=O)C[C@H](OC(=O)CCC)[C@@]1(O)[C@H]2OC(=O)[C@@]1(C)O [THAP, thapsigargin]
- TUNEL labeling (C6): clear increase of TUNEL labeling

SMILES: CCN(CC)CCCC(C)Nc1c2ccc(Cl)cc2nc2ccc(OC)cc12 (stereo not shown) [quinacrine]
- toxicity to tumor versus normal cells (tumor cells): more toxic to tumor than to normal cells
- p53 activation and p53-dependent killing of tumor cell types (p53): capable of p53 activation and p53-dependent killing
- ERSR activation and GRP78 target protein in tumor explants [1]: activaiton of ERSR and changes in GRP78 target protein
- caspase 12 activation in tumor explants [1]: activation of caspase 12 is evident
- killing of C6 cells (C6 cells): ineffective in killing C6 cells
- cytotoxicity in human cells versus rat cells (glioma cells): higher cytotoxicity in human cells than in rat cells
- gliotoxicity (glioma cells; cell line not stated): by far the most effective gliotoxic compound
- antiglioma action ([2]; 100 mg/kg of quinacrine and 10 mg/kg 9-aminoacridine): powerful antiglioma action
- delay in tumor growth ([2]; 200 mg/kg daily oral): 14 days
- tumor growth after withdrawal of treatment versus controls ([2]; 200 mg/kg daily oral): significant reduction in tumor growth than controls
- estimated survival prolongment in mice life [2, 4]: 14 days
- tumor in one of the treated animals [2, 4]: disappearance of the tumor
- tumor size in treated animals [2, 4]: tumors decrease in size
- effect on tumor growth ([2]; 200 mg/kg daily oral, at 11 days): already significant
- inhibition of tumor growth ([2]; 200 mg/kg daily oral, at 21 days): 6-7 folds
- animal survival rate compared to control [2, 5]: increased survival rate
- tumor size compared to control [2, 5]: decrease in tumor size
- animal survival rate compared to control [2, 6]: survival rate was high
- tumor size compared to control [2, 6]: tumor size remained relatively constant
- delay / survival prolongment translated to human life ([2]; life expectancy 18 months in mice, 90 years in human): 851 days
- cure rate ([2]; quinacrine 200 mg/kg daily oral, one animal tumor-free): 16%
- peak concentration [3]: less than 10 ng/ml
- alpha-granule release reaction of platelets (platelets): prevent the alpha-granule release reaction of platelets
- DNA damaging activity (DNA): not found to show DNA damaging activity
